Laboratory results: US20120165331A1, “Di/tri-aza-spiro-C9-C11alkanes” (priority 2010, published 2012)

Assays:
[1] = biological target: T1, human orexin 2 receptor (Homo sapiens, UniProt O43614); experiment: Calcium accumulation in cells (FLIPR), antagonism of orexin A, human orexin 2 receptor; type: cell-based; details: for Ki: calcium accumulation, antagonism of orexin A, Cheng-Prusoff corrected, read-out: FLIPR hOx2R Ki; for inhibition at 10 µM: measured at a concentration of 10 μM of compound, read-out: FLIPR hOx2R % inhibition
T1 construct: expressed in transfected cells
T1 sequence (O43614 1-444): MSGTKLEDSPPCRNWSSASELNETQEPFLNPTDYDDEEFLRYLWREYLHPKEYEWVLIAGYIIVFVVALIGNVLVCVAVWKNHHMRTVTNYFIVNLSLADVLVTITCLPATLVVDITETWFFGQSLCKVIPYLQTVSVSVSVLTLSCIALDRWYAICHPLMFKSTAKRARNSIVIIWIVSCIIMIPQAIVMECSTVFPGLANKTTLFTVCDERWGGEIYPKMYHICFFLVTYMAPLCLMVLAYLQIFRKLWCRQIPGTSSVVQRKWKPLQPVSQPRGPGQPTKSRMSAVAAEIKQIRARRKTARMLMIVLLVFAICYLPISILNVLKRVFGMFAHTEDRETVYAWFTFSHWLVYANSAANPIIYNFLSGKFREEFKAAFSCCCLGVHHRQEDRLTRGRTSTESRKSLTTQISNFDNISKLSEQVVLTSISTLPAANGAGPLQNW
Method: (§1) Calcium Accumulation in Cells (FLIPR):
(§2) Cells expressing human orexin 1 or human orexin 2 receptors, were seeded at 8,000 cells/well in 384 well black-walled clear bottom, poly-D-lysine coated plates. After 24 h, the medium was removed and cells were washed once with phosphate buffered saline and serum-deprived overnight in assay buffer (130 mM NaCl, 5.4 mM KCl, 1.8 mM CaCl2, 0.8 mM MgSO4, 0.9 mM NaH2PO4, 25 mM glucose, 20 mM HEPES, pH 7.4) containing bovine serum albumin (1% w/v).
(§3) On the day of the experiment, the cells seeded in black plates were treated with assay buffer containing the Ca^2+ sensitive fluorescent dye Fluo-4-AM (2 μM), and probenecid (0.1 mM). After 1 h plates were washed twice with, and resuspended in, assay buffer containing probenecid (0.1 mM) using a multi plate washer. The plates were placed into a FLIPR II (Fluorometric Imaging Plate Reader, Molecular Devices, Sunnyvale, Calif., USA) and baseline fluorescence (fluorescence light units, FLU) was measured (5 measurements, 2 S each; laser excitation 488 nm at 0.6-1 W, CCD camera exposure 0.4 s) before addition of buffer alone (basal) or containing test compounds (either compound of formula I alone, agonist alone or agonist in the presence of various concentrations of compounds of formula I). Fluorescence measurements were then continued every 1 S for 120 S followed by every 4 S for 240 S.
(§4) The measurements were typically made in two sequences:
(§5) Compounds of formula I were tested usually in a concentration range from 10^−9 M to 10^−5 M.
(§6) In the second round, performed one hour later (to allow for equilibration), Orexin A was tested either in the absence (calibration curves, Orexin A agonist controls) or in the presence of compounds of formula Ito determine antagonism.
(§7) Inhibition data is expressed in Table 1 as Kd [μM], converted by the Cheng and Prusoff correction (Kd=IC50/1+(L/EC50)), where IC50 is the 50% inhibition value determined in concentration response inhibition curves, EC50 is the half maximal activation concentration determined for orexin A in concentration response curves and L is the concentration of orexin A used in inhibition experiments performed in with a submaximal concentration of orexin A in the presence of up to 8 increasing concentrations of compound of formula I. Inhibition data is also expressed in Table 1 as % inhibition value measured at a concentration of 10 μM of selected compounds of formula I.

[2] = biological target: T2, human orexin 1 receptor (Homo sapiens, UniProt O43613); experiment: Calcium accumulation in cells (FLIPR), antagonism of orexin A, human orexin 1 receptor; type: cell-based; details: for inhibition at 10 µM: measured at a concentration of 10 μM of compound, read-out: FLIPR hOx1R % inhibition; for Ki: calcium accumulation, antagonism of orexin A, Cheng-Prusoff corrected, read-out: FLIPR hOx1R Ki
T2 construct: expressed in transfected cells
T2 sequence (O43613 1-425): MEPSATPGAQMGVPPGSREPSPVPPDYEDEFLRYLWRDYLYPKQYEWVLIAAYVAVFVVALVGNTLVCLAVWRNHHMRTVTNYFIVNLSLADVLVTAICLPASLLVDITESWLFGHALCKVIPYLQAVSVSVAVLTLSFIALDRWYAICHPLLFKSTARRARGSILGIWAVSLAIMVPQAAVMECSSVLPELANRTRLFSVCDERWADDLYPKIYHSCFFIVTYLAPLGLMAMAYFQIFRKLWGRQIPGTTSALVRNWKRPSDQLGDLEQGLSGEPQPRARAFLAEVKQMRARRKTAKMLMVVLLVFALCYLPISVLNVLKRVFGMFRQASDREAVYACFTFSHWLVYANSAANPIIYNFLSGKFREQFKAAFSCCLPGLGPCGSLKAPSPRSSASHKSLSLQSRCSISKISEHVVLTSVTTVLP
Method: as §1, §2, §3, §4, §5, §6, §7

Compound: COc1cc(C)nc(N2CCC3(CCN(Cc4c[nH]c5ncccc45)C3=O)CC2)n1 [Example 3.22, 2-((1H-pyrrolo[2,3-b]pyridin-3-yl)methyl)-8-(4-methoxy-6-methylpyrimidin-2-yl)-2,8-diazaspiro[4.5]decan-1-one]
- Ki [1]: 246 nM
- inhibition at 10 µM [2]: 24%

Compound: Cc1cc(C)nc(N2CCC3(CC2)NCCN(Cc2nn(C)cc2-c2cccc(-c4nnc(C)o4)c2)C3=O)n1 [Example 1.59, 9-(4,6-Dimethyl-pyrimidin-2-yl)-4-((1-methyl-4-(3-(5-methyl-1,3,4-oxadiazol-2-yl)phenyl)-1H-pyrazol-3-yl)methyl)-1,4,9-triazaspiro[5.5] undecan-5-one]
- Ki [1]: 252 nM
- inhibition at 10 µM [2]: 37%

Compound: Cc1cncc(N2CCC3(CCC(=O)N3Cc3cccc4[nH]ccc34)CC2)n1 [Example 8.2, 1-((1H-Indol-4-yl)methyl)-8-(6-methylpyrazin-2-yl)-1,8-diazaspiro[4.5]decan-2-one]
- Ki [1]: 133 nM
- inhibition at 10 µM [2]: 12%

Compound: N#Cc1ccnc(N2CCC3(CC2)COCC(=O)N3Cc2cccc3[nH]ccc23)n1 [Example 8.18, 2-(1-((1H-Indol-4-yl)methyl)-2-oxo-4-oxa-1,9-diazaspiro[5.5]undecan-9-yl)pyrimidine-4-carbonitrile]
- Ki [1]: 1010 nM
- inhibition at 10 µM [2]: 25%

Compound: Cn1ccnc1-c1ccnc(N2CCC3(CCN(Cc4c[nH]c5ccccc45)C3=O)C2)n1 (stereo not shown) [Example 5.22, 2-((1H-indol-3-yl)methyl)-7-(4-(1-methyl-1H-imidazol-2-yl)pyrimidin-2-yl)-2,7-diazaspiro[4.4]nonan-1-one]
- Ki [1]: 489 nM
- Ki [2]: 923 nM

Compound: O=C1N(Cc2c[nH]c3ccccc23)CCC12CCN(c1nc3cc(Cl)ccc3o1)C2 (stereo not shown) [Example 5.15, 2-((1H-Indol-3-yl)methyl)-7-(5-chlorobenzo[d]oxazol-2-yl)-2,7-diazaspiro[4.4]nonan-1-one]
- inhibition at 10 µM [1]: 37%
- inhibition at 10 µM [2]: 29%

Compound: Cc1cc(C)nc(N2CCC3(CC2)OCCN(Cc2nnn(C)c2-c2ccccc2)C3=O)n1 [Example 2.16, 9-(4,6-Dimethylpyrimidin-2-yl)-4-((1-methyl-5-phenyl-1H-1,2,3-triazol-4-yl)methyl)-1-oxa-4,9-diazaspiro[5.5]undecan-5-one]
- inhibition at 10 µM [1]: 27%
- inhibition at 10 µM [2]: 16%

Compound: Cc1ccnc(N2CCC3(CCN(Cc4c[nH]c5ccccc45)C3=O)CC2)n1 [Example 3.5, 2-((1H-Indol-3-yl)methyl)-8-(4-methylpyrimidin-2-yl)-2,8-diazaspiro[4.5]decan-1-one]
- Ki [1]: 296 nM
- inhibition at 10 µM [2]: 25%

Compound: COc1ccc(-c2cn(C)nc2CN2CCNC3(CCN(c4nc(C)cc(C)n4)CC3)C2=O)cc1OC [Example 1.35, 4-((4-(3,4-Dimethoxyphenyl)-1-methyl-1H-pyrazol-3-yl)methyl)-9-(4,6-dimethylpyrimidin-2-yl)-1,4,9-triazaspiro[5.5] undecan-5-one]
- Ki [1]: 400 nM
- inhibition at 10 µM [2]: 25%

Compound: COc1ccnc(N2CCC3(CCCN(Cc4c[nH]c5ncccc45)C3=O)C2)n1 (stereo not shown) [Example 7.2, 7-((1H-Pyrrolo[2,3-b]pyridin-3-yl)methyl)-2-(4-methoxypyrimidin-2-yl)-2,7-diazaspiro[4.5]decan-6-one]
- Ki [1]: 703 nM
- Ki [2]: 3200 nM

Compound: Cc1cc(C)nc(N2CCC3(CC2)OCCN(Cc2nocc2-c2ccccc2)C3=O)n1 [Example 2.25, 9-(4,6-dimethylpyrimidin-2-yl)-4-((4-phenylisoxazol-3-yl)methyl)-1-oxa-4,9-diazaspiro[5.5]undecan-5-one]
- Ki [1]: 374 nM
- Ki [2]: 2680 nM

Compound: Cc1cc(C)nc(N2CCC3(CC2)COC(=O)N3Cc2c[nH]c3ccccc23)n1 [Example 8.24, 1-((1H-Indol-3-yl)methyl)-8-(4,6-dimethylpyrimidin-2-yl)-3-oxa-1,8-diazaspiro[4.5]decan-2-one]
- Ki [1]: 448 nM
- inhibition at 10 µM [2]: 21%

Compound: COCc1cccc(-c2oc(C)nc2CN2CCNC3(CCN(c4nc(C)cc(C#N)n4)CC3)C2=O)c1 [Example 1.31, 2-(4-((5-(3-(Methoxymethyl)phenyl)-2-methyl-oxazol-4-yl)methyl)-5-oxo-1,4,9-triazaspiro[5.5]undecan-9-yl)-6-methylpyrimidine-4-carbonitrile]
- Ki [1]: 64 nM
- inhibition at 10 µM [2]: 38%

Compound: Cn1ccc2c(CN3C(=O)COCC34CCN(c3cnc5ccccc5n3)CC4)cccc21 [Example 8.10, 1-((1-Methyl-1H-indol-4-yl)methyl)-9-(quinoxalin-2-yl)-4-oxa-1,9-diazaspiro[5.5]undecan-2-one]
- Ki [1]: 202 nM
- Ki [2]: 265 nM

Compound: CCc1cc(-c2nn(C)nc2CN2CCNC3(CCN(c4nc(C)cc(C)n4)CC3)C2=O)ccn1 [Example 1.75, 9-(4,6-dimethyl-pyrimidin-2-yl)-4-((5-(2-ethyl-pyridin-4-yl)-2-methyl-2H-1,2,3-triazol-4-yl)methyl)-1,4,9-triazaspiro[5.5] undecan-5-one]
- inhibition at 10 µM [1]: 35%
- inhibition at 10 µM [2]: < 10%

Compound: COc1ccnc(N2CCC3(CCN(Cc4ccccc4-c4nc(C)no4)C3=O)C2)n1 (stereo not shown) [Example 5.13, 7-(4-Methoxypyrimidin-2-yl)-2-(2-(3-methyl-1,2,4-oxadiazol-5-yl)benzyl)-2,7-diazaspiro[4.4]nonan-1-one]
- Ki [1]: 673 nM
- Ki [2]: 4160 nM

Compound: Cc1cc(N2CCC3(CCN(Cc4c[nH]c5ccccc45)C3=O)C2)nc(C)n1 (stereo not shown) [Example 5.31, 2-((1H-indol-3-yl)methyl)-7-(2,6-dimethylpyrimidin-4-yl)-2,7-diazaspiro[4.4]nonan-1-one]
- inhibition at 10 µM [1]: 24%
- inhibition at 10 µM [2]: < 10%

Compound: Cc1cc(C)nc(N2CCC3(CC2)NCCN(Cc2ccccc2-c2ncc(C)o2)C3=O)n1 [Example 1.64, 9-(4,6-dimethyl-pyrimidin-2-yl)-4-(2-(5-methyloxazol-2-yl)benzyl)-1,4,9-triazaspiro[5.5] undecan-5-one]
- Ki [1]: 423 nM
- inhibition at 10 µM [2]: 32%

Compound: Cc1ccnc(N2CCC3(CCN(Cc4c[nH]c5ccccc45)C3=O)C2)n1 (stereo not shown) [Example 5.6, 2-((1H-Indol-3-yl)methyl)-7-(4-methylpyrimidin-2-yl)-2,7-diazaspiro[4.4]nonan-1-one]
- Ki [1]: 393 nM
- inhibition at 10 µM [2]: 33%

Compound: Cc1cc(C)nc(N2CCC3(CC2)NCCN(Cc2ccccc2-c2nc(C)no2)C3=O)n1 [Example 1.69, 9-(4,6-dimethyl-pyrimidin-2-yl)-4-(2-(3-methyl-1,2,4-oxadiazol-5-yl)benzyl)-1,4,9-triazaspiro[5.5] undecan-5-one]
- Ki [1]: 235 nM
- inhibition at 10 µM [2]: 13%

Compound: COc1ccnc(N2CCC3(CCN(Cc4n[nH]c5ccccc45)C3=O)C2)n1 (stereo not shown) [Example 5.12, 2-((1H-Indazol-3-yl)methyl)-7-(4-methoxypyrimidin-2-yl)-2,7-diazaspiro[4.4]nonan-1-one]
- Ki [1]: 711 nM
- inhibition at 10 µM [2]: 40%

Compound: O=C1N(Cc2ccccc2-c2ccccc2)CCC12CCN(c1nc3ccccc3s1)CC2 [Example 3.10, 8-(Benzo[d]thiazol-2-yl)-2-(biphenyl-2-ylmethyl)-2,8-diazaspiro[4.5]decan-1-one]
- Ki [1]: 1080 nM
